Assay results published in US20250360130A1, “METHODS OF TREATING INDOLENT SYSTEMIC MASTOCYTOSIS” (Telios Pharma Inc., priority 2024, published 2025).

Tests used:
ISM-like mast cells = assay: Antigen-induced degranulation (CD63 and histamine) in ISM-like mast cells; type: cell-based, human; conditions: ISM-like (+SCF) mast cells, two hours treatment prior to stimulation
Procedure: Human mast cells were derived from bone marrow CD34+ cells from six healthy donors for up to eight weeks by culturing CD34+ cells in StemSpan SFEM II (Stem Cell Technologies) supplemented with stem cell factor (SCF; 100 ng/mL; R&D System), IL-6 (R&D Systems), IL-3 (R&D Systems) and 1% penicillin/streptomycin (P/S; Gibco) for the first 10 days and in StemSpan SFEM II supplemented with SCF and IL-6 and 1% P/S for the remaining time in culture. […] Supernatant was collected and histamine levels were measured using a Histamine ELISA kit (Eagle Biosciences). […] Percent of activated mast cells was calculated as number of activated mast cells over the total number of mast cells.
Human mast cells were differentiated from bone marrow CD34+ cells from six healthy donors, cultured and sensitized as set forth in Example 4. […] The median fluorescence intensity of phosphorylated BTK was measured. CD63 and histamine levels in these cells were measured and percent activated mast cells were calculated as set forth in Example 4. The percent of stimulated control for pBTK, activated mast cells (CD63+) and histamine levels was calculated. […]

basophils = assay: Anti-IgE induced IL-4 production from basophils in whole blood; type: cell-based, human; conditions: whole blood from a healthy donor, two hours treatment, anti-IgE six hours
Procedure: Human mast cells lines, ROSA with wildtype KIT and ROSA […] with D816V KIT mutation (ISM-like cells), were licensed from CRNS Innovation and cultured with or without stem cell factor (100 ng/ml), respectively (FIG. 12A). ROSA cells were stimulated with IL-4 (20 ng/ml; R&D Systems) for 18 hours, stained for FcεRIα (Becton Dickinson) for 30 minutes on ice, washed twice with FACS buffer and data was acquired on a flow cytometer. The median fluorescence intensity of FcεRIα was measured. […] Whole blood from a healthy donor was treated with Compound 128 for two hours and the basophils were stimulated with anti-IgE (1 μg/mL; Beckman Coulter) for six hours (FIG. 12B). Plasma was collected and IL-4 levels were measured using the BD CBA human soluble protein master buffer kit and BD CBA human soluble protein flex set for IL-4 (Becton Dickinson). A four-parameter logistic regression analysis was performed on the cytokine levels to determine the EC50 and EC90. […] Therefore, Compound 128 may indirectly effect FcεRI expression by the reduction of IL-4 levels.

BTK = BTK (Homo sapiens, UniProt Q06187); assay: Phospho-BTK (pBTK) test in basophils, whole blood; type: cell-based; design: Human mast cells were differentiated from bone marrow CD34+ cells from six healthy donors; endogenous in cells; host or cells: human mast cells differentiated from bone marrow CD34+ cells of healthy donors, cultured with SCF; conditions: 24 hours exposure, CCR3+ basophils, anti-FcεR stimulation; read-out: average EC50 (n=4), pBTK (Y223) normalized to DMSO control
Procedure: Blood from four healthy donors was drawn and Compound 128 was added at various concentrations (10 µM, 3.16 μM, 1 μM, 0.3 μM, 0.1 μM, 0.03 μM, or 0 μM). Blood samples were gently rocked at room temperature for 24 hours. The pBTK test was then conducted by (1) stimulating the blood with anti-FcεR stimulation control from Flow Cast Basophil Activation Kit and staining cells for CCR3 (Becton Dickinson) and a near-IR dead cell stain (nIR; Invitrogen) for 15 minutes at 37° C., (2) lysing red blood cells and fixing cells with Phosflow Lyse/Fix Buffer (Becton Dickinson) at 37° C. for 10 minutes, (3) washing once with 1× phosphate-buffered saline (PBS), (4) washing twice with Perm/Wash buffer (Becton Dickinson), (5) permeabilizing cells with Perm/Wash buffer on ice for 15 minutes, (6) staining cells for rabbit anti-human pBTK (Abcam) for 30 minutes on ice, (7) washing twice with Perm/Wash buffer, (8) staining with goat anti-rabbit secondary antibody (Invitrogen) for 30 minutes on ice, (9) washing twice with Perm/Wash buffer, and (10) acquiring data on a flow cytometer. Live basophils were defined as nIR−, CCR3+ and low side scatter. The median fluorescence intensity of phosphorylated BTK was measured and percent of stimulated control was calculated. […] The percent of stimulated control of activated mast cells (CD63+) was calculated. […]

BTK, sequence (Q06187 whole entry): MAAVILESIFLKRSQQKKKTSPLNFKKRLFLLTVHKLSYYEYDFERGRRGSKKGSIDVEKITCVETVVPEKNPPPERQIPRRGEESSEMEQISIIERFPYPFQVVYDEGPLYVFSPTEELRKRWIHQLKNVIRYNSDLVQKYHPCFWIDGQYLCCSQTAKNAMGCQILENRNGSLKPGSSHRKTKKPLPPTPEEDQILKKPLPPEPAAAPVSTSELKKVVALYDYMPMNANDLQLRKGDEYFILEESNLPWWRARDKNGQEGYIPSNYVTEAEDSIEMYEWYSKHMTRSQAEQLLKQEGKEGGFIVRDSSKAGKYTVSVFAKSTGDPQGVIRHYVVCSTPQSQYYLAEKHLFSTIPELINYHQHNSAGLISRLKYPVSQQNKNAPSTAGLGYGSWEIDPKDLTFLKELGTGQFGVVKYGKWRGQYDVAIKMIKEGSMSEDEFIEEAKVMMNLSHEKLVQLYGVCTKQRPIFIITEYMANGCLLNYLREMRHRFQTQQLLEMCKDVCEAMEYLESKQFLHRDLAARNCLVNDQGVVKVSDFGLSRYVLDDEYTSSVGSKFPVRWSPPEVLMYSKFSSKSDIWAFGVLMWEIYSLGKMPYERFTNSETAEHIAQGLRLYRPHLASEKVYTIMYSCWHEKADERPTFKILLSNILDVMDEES

## C=CC(=O)N1CCC(F)(CNc2ncnc(N)c2-c2ccc(Oc3ccccc3)cc2)CC1 [Compound 128, 1-(4-(((6-amino-5-(4-phenoxyphenyl)pyrimidin-4-yl)amino)methyl)-4-fluoropiperidin-1-yl)prop-2-en-1-one]
ISM-like mast cells
  IgE-mediated degranulation (CD63 and histamine): potently inhibits
basophils
  IgE-mediated IL-4 production: potently inhibited
BTK
  EC50: 130 nM
